Experiments:
Assay type in all cases: cell-based
[1] = system: XBP1 splicing, THP-1 cells; experiment: XBP1 biochip and RT-PCR assessment of THP-1 cells after NLRP3 inflammasome activation; conditions: for XBP1 splicing upon inflammasome activation: LPS 1 μg/ml 4 h followed by nigericin 10 μM 45 min (used together)
Procedure: (§1) Biochip-based determination of XBP1s and XBP1u. XBP1s and XBP1u levels and raw signal were quantified using the Evidence Investigator analyser (EV3602, Randox Laboratories Ltd., UK). Signals from defined discrete test regions were detected using digital imaging technology. The biochips were provided in wells in a carrier in a 3×3 format (9 reaction wells per carrier). A carrier handling tray supplied with the system accommodated 6 carriers. The total assay protocol was performed according to manufacturer's instructions. Briefly, RIPA lysed samples were diluted to 100 μL in RIPA buffer followed by dilution to 200 μL in XBP1 assay buffer and mixed well with gentle pipetting. 200 μL of XBP1 assay diluent was then applied to the surface of the biochip followed by 200 μL diluted sample or 100 μL calibrator/control per well. Following a 60-minute incubation at 37° C., 370 RPM in a thermoshaker (Randox Laboratories Ltd., Crumlin, UK) liquid contents were removed with a sharp flick and washed in a 2× quick, 4×2 min wash steps. 300 μL of HRP conjugated pan-XBP1 detector was applied to each well and another 60 min incubation at 37° C., 370 RPM in a thermoshaker was performed. Following another wash as above 250 μL of a 1:1 ratio of EV841 luminol and peroxide was applied to the surface of each biochip in a carrier and incubated away from direct light for 2 min. Carriers were then submitted to the Evidence Investigator, light emitted from each DTR detected by the CCD camera and signal quantified by the instrument software. Final values in pg/mg were obtained by dividing reported value (in pg) by total protein loaded per well, as determined by bicinchoninic acid (BCA) assay. Calibration curves, inferred values and goodness of fit were independently confirmed using R package nplr (0.1-7, Frederic Commo, https://cran.r-project.org/web/packages/nplr/index.html).
Cell culture and treatments MCF10A (ATCC) cells were maintained in DMEM/F-12 (Sigma-Aldrich, St. Louis, USA) supplemented with 5% horse serum (Sigma-Aldrich, St. Louis, USA), 20 ng/mL epidermal growth factor (PeproTech, London, UK), 0.5 μg/mL Hydrocortisone (Sigma-Aldrich, St. Louis, USA), 100 ng/mL Cholera toxin (Sigma-Aldrich, St. Louis, USA), 10 μg/mL insulin (Sigma-Aldrich, St. Louis, USA), 50 U/mL^1 penicillin, and 50 μg/mL streptomycin (St. Sigma-Aldrich, St. Louis, USA). MCF7 cells (ECACC) were cultured in DMEM high glucose (Sigma-Aldrich, St. Louis, USA) supplemented with 10% FBS, 0.01 mg/mL Insulin (Sigma-Aldrich, St. Louis, USA), and 2 mM L-glutamine. MDA-MB-231 cells were cultured in DMEM high glucose (Sigma-Aldrich, St. Louis, USA) supplemented with 10% FBS, 50 U/mL^1 penicillin, 50 μg/mL streptomycin, and 2 mM L-glutamine. […]

[2] = system: XBP1 splicing, MDA-MB-231 cells; experiment: XBP1 biochip quantification of XBP1s and XBP1u in MDA-MB-231 lysates; conditions: for XBP1s quantified by XBP1 biochip: 4μ8C 32 μM (p=0.035) or MKC-8866 20 μM (p=0.033); for Paclitaxel induced increase in XBP1s under IRE1α RNase inhibition: Paclitaxel 10 nM 48 h plus inhibitor, p<0.01; for XBP1u levels: Paclitaxel, MKC-8866 and/or 4μ8C treatment; for XBP1u protein levels during IRE1α inhibition: XBP1 biochip, p=0.71
Procedure: as §1
(§2) Cell culture and treatments MCF10A (ATCC) cells were maintained in DMEM/F-12 (Sigma-Aldrich, St. Louis, USA) supplemented with 5% horse serum (Sigma-Aldrich, St. Louis, USA), 20 ng/mL epidermal growth factor (PeproTech, London, UK), 0.5 μg/mL Hydrocortisone (Sigma-Aldrich, St. Louis, USA), 100 ng/mL Cholera toxin (Sigma-Aldrich, St. Louis, USA), 10 μg/mL insulin (Sigma-Aldrich, St. Louis, USA), 50 U/mL^1 penicillin, and 50 μg/mL streptomycin (St. Sigma-Aldrich, St. Louis, USA). MCF7 cells (ECACC) were cultured in DMEM high glucose (Sigma-Aldrich, St. Louis, USA) supplemented with 10% FBS, 0.01 mg/mL Insulin (Sigma-Aldrich, St. Louis, USA), and 2 mM L-glutamine. MDA-MB-231 cells were cultured in DMEM high glucose (Sigma-Aldrich, St. Louis, USA) supplemented with 10% FBS, 50 U/mL^1 penicillin, 50 μg/mL streptomycin, and 2 mM L-glutamine. U937 and THP-1 (ATCC, Manassas, USA) cells were cultured in RPMI-1640 medium (Sigma-Aldrich, St. Louis, USA) supplemented with 10% foetal bovine serum (FBS) (Sigma-Aldrich, St. Louis, USA), 50 U/mL penicillin, 50 μgml^−1 streptomycin (Sigma-Aldrich, St. Louis, USA), and 2 mM L-glutamine (Sigma-Aldrich, St. Louis, USA). All cells were cultured at 37° C., 5% CO2 in a humidified incubator and adherent cells seeded at an appropriate density 24 h prior to treatment. U937 cells were seeded at 5×10^5 cells/mL and treated immediately while THP-1 cells were seeded at 1×10^6 cells/mL and treated after 2 hours.
(§3) Sample preparation Cells were washed once in ice cold phosphate buffered saline (PBS) and then lysed in either RIPA buffer (Sigma-Aldrich, St. Louis, USAUSA) with RocheSTOP protease inhibitors (Roche, Basel, Switzerland) for protein analysis or directly lysed in TriReagent (Sigma-Aldrich, St. Louis, USAUSA) as per manufactures instructions for RNA analysis.

[3] = system: XBP1 splicing, MCF7 cells; experiment: XBP1 biochip quantification of XBP1s and XBP1u in MCF7 lysates; conditions: 48 h; for XBP1s quantified by XBP1 biochip: 4μ8C 32 μM (p=0.004) or MKC-8866 20 μM (p=0.008)
Procedure: as §1, with “https://cran.r-project.org/web/packages/nplr/index.html). […]” for “https://cran.r-project.org/web/packages/nplr/index.html).”

[4] = system: XBP1s, MDA-MB-231 cells; experiment: Immunoblot of XBP1 isoforms in MDA-MB-231 cells; conditions: for XBP1s (immunoblot) under IRE1α RNase inhibition: 4μ8C 32 μM or MKC-8866 20 μM, 48 h; for XBP1s translation (immunoblot): Tg 48 h, Tm 1 μg/ml 16 h, BFA 0.5 μg/ml 16 h, DTT 4 mM 2 h
Procedure: as §2, §3
Immunoblotting Protein lysates were mixed with 5× Laemmli Buffer (0.3125 M Tris HCl (pH 6.8), 10% SDS, 50% glycerol, 25% 2-mercaptoethanol, 0.02% bromophenol blue) in a 1:4 ratio and boiled at 95° C. for 5 min. Samples were separated on an SDS polyacrylamide gel, transferred onto nitrocellulose membrane (GE Healthcare Life Sciences, Little Chalfont, UK) and blocked with 5% milk in Wash Buffer (Randox Laboratories Ltd., Crumlin, UK). Membranes were probed with commercial antibodies to spliced and unspliced XBP1 isoforms and Actin (Sigma-Aldrich, St. Louis, USA, 1:5000). Anti-rabbit (Jackson ImmunoResearch, Cambridge, UK) and anti-mouse (Jackson ImmunoResearch, Cambridge, UK; Sigma-Aldrich, St. Louis, USA) HRP-conjugated secondary antibodies were incubated for 45-60 min and the signal was visualized using western blotting luminol reagent (Thermofisher, Waltham, USA; Perkin-Elmer, Waltham, USA).

[5] = system: XBP1s, MCF7 cells; experiment: Immunoblot of XBP1 isoforms in MCF7 cells; conditions: 4μ8C 32 μM or MKC-8866 20 μM, 48 h
Procedure: as §2, with “U937 cells were seeded at 5×10^5 cells/mL and treated immediately while THP-1 cells were seeded at 1×10^6 cells/mL and treated after 2 hours.” left out

[6] = system: NLRP3 mediated IL-1β release, THP-1 cells; experiment: Immunoblot of IL-1β in conditioned media of THP-1 cells; conditions: LPS and nigericin activated

## Lipopolysaccharide [LPS]
[1]
  XBP1 splicing upon inflammasome activation: increase

## COc1cc2c(C)c(CC(=O)N3CCOCC3)c(=O)oc2c(C=O)c1O [MKC-8866]
[2]; MDA-MB-231, 48 h
  XBP1s quantified by XBP1 biochip: significant reductions
  XBP1u levels: no significant change
[2]; MDA-MB-231
  Paclitaxel induced increase in XBP1s under IRE1α RNase inhibition: completely ablated
  XBP1u protein levels during IRE1α inhibition: largely unchanged
[3]
  XBP1s quantified by XBP1 biochip: significant reductions
[4]
  XBP1s (immunoblot) under IRE1α RNase inhibition: reduction
[5]
  XBP1s (immunoblot) under IRE1α RNase inhibition: reduction
[1]; LPS and nigericin activated, p=0.048
  XBP1s expression upon MKC-8866 mediated inhibition (XBP1 biochip): significant changes
[1]; mean=46.2 μg/mg over treatments, one-way ANOVA p=0.408
  XBP1u levels (XBP1 biochip): largely unchanged
[6]
  IL-1β release: ablates

## C/C=C(/C)C(=O)O[C@H]1C(C)=C2[C@H]([C@@H]1OC(=O)CCCCCCC)[C@@](C)(OC(C)=O)C[C@H](OC(=O)CCC)[C@@]1(O)[C@H]2OC(=O)[C@@]1(C)O [Thapsigargin]
[4]
  XBP1s translation (immunoblot): upregulation

## CO[C@@H]1C[C@@H](C[C@H]2CC[C@H](C)[C@H]([C@@H](C)C(=O)O)O2)O[C@]2(O[C@](C)([C@H]3CC[C@@](C)([C@@H]4O[C@@H]([C@H]5O[C@@](O)(CO)[C@H](C)C[C@@H]5C)C[C@@H]4C)O3)C[C@H]2C)[C@@H]1C [nigericin, Nigericin]
[1]
  XBP1 splicing upon inflammasome activation: increase

## O[C@H](CS)[C@H](O)CS (racemic) [Dithiothreitol]
[4]
  XBP1s translation (immunoblot): upregulation

## CC(=O)O[C@H]1C(=O)[C@@]2(C)[C@H]([C@H](OC(=O)c3ccccc3)[C@]3(O)C[C@H](OC(=O)[C@H](O)[C@@H](NC(=O)c4ccccc4)c4ccccc4)C(C)=C1C3(C)C)[C@]1(OC(C)=O)CO[C@@H]1C[C@@H]2O [Paclitaxel]
[2]; MDA-MB-231, Paclitaxel 10 nM, 48 h, from 66.9±16.2 without Paclitaxel, p=0.036
  XBP1s expression: 125.0 ± 14.1 µg/mg
[2]; MDA-MB-231, 48 h
  XBP1u levels: no significant change

## Tunicamycin
[4]
  XBP1s translation (immunoblot): upregulation

## C[C@H]1CCC/C=C/[C@@H]2C[C@H](O)C[C@H]2[C@H](O)/C=C/C(=O)O1 [Brefeldin A]
[4]
  XBP1s translation (immunoblot): upregulation

## Cc1cc(=O)oc2c(C=O)c(O)ccc12 [4μ8C]
[2]; MCF7 and MDA-MB-231, 4μ8C 32 μM versus MKC-8866 20 μM
  relative potency of inhibition of XBP1s (XBP1 biochip): more potent than MKC
[2]; MDA-MB-231, 48 h
  XBP1s quantified by XBP1 biochip: significant reductions
  XBP1u levels: no significant change
[2]; MDA-MB-231
  Paclitaxel induced increase in XBP1s under IRE1α RNase inhibition: completely ablated
  XBP1u protein levels during IRE1α inhibition: largely unchanged
[3]
  XBP1s quantified by XBP1 biochip: significant reductions
[3]; 4μ8C 32 μM, significant upregulation, p=0.019
  XBP1u protein expression level (average): 81.1 µg/mg
[4]
  XBP1s (immunoblot) under IRE1α RNase inhibition: reduction
[5]
  XBP1s (immunoblot) under IRE1α RNase inhibition: reduction
